Reference: PubChem BioAssay (NCI)
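Briefly, cells in 96-well plates were exposed to five compound concentrations for 48 h, and endpoints were estimated by linear interpolation. Abbreviation: GI50, concentration required for 50% inhibition of growth. TGI denotes the concentration required for complete inhibition of growth.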

Key:
Assay in all cases: NCI anticancer screen, dose series, 48 h
786-0 renal = system: 786-0 renal
A498 renal = system: A498 renal
A549 NSCLC = system: A549 NSCLC
ACHN renal = system: ACHN renal
BT-549 breast = system: BT-549 breast
CAKI-1 renal = system: CAKI-1 renal
COLO 205 colon = system: COLO 205 colon
DU-145 prostate = system: DU-145 prostate
EKVX NSCLC = system: EKVX NSCLC
HCC-2998 colon = system: HCC-2998 colon
HCT-15 colon = system: HCT-15 colon
HL-60(TB) leukemia = system: HL-60(TB) leukemia
HOP-62 NSCLC = system: HOP-62 NSCLC
HOP-92 NSCLC = system: HOP-92 NSCLC
HS 578T breast = system: HS 578T breast
HT29 colon = system: HT29 colon
IGROV1 ovarian = system: IGROV1 ovarian
K-562 leukemia = system: K-562 leukemia
KM12 colon = system: KM12 colon
M14 melanoma = system: M14 melanoma
MALME-3M melanoma = system: MALME-3M melanoma
MCF7 breast = system: MCF7 breast
MDA-MB-231 breast = system: MDA-MB-231 breast
MDA-MB-435 = system: MDA-MB-435
MDA-MB-468 breast = system: MDA-MB-468 breast
MOLT-4 leukemia = system: MOLT-4 leukemia
NCI-H226 lung = system: NCI-H226 lung
NCI-H23 lung = system: NCI-H23 lung
NCI-H460 lung = system: NCI-H460 lung
NCI-H522 lung = system: NCI-H522 lung
NCI/ADR-RES ovarian = system: NCI/ADR-RES ovarian
OVCAR-3 ovarian = system: OVCAR-3 ovarian
OVCAR-4 ovarian = system: OVCAR-4 ovarian
OVCAR-5 ovarian = system: OVCAR-5 ovarian
OVCAR-8 ovarian = system: OVCAR-8 ovarian
PC-3 prostate = system: PC-3 prostate
RPMI-8226 leukemia = system: RPMI-8226 leukemia
RXF 393 renal = system: RXF 393 renal
SF-268 CNS = system: SF-268 CNS
SF-295 CNS = system: SF-295 CNS
SF-539 CNS = system: SF-539 CNS
SK-MEL-2 melanoma = system: SK-MEL-2 melanoma
SK-MEL-28 melanoma = system: SK-MEL-28 melanoma
SK-MEL-5 melanoma = system: SK-MEL-5 melanoma
SK-OV-3 ovarian = system: SK-OV-3 ovarian
SN12C renal = system: SN12C renal
SNB-19 CNS = system: SNB-19 CNS
SNB-75 CNS = system: SNB-75 CNS
SR leukemia = system: SR leukemia
SW-620 colon = system: SW-620 colon
T-47D breast = system: T-47D breast
TK-10 renal = system: TK-10 renal
U251 CNS = system: U251 CNS
UACC-257 melanoma = system: UACC-257 melanoma
UACC-62 melanoma = system: UACC-62 melanoma
UO-31 renal = system: UO-31 renal

SMILES: COc1ccc(-c2nc(Nc3ccccc3S(N)(=O)=O)c3ccccc3n2)cc1
- GI50 (786-0 renal): 3.75 µM
- TGI (786-0 renal): 14.6 µM
- GI50 (A498 renal): 10.5 µM
- TGI (A498 renal): 57.6 µM
- GI50 (A549 NSCLC): 3.7 µM
- TGI (A549 NSCLC): 30.9 µM
- GI50 (ACHN renal): 6.39 µM
- TGI (ACHN renal): 28.3 µM
- GI50 (BT-549 breast): 22.5 µM
- TGI (BT-549 breast): > 100 µM
- GI50 (CAKI-1 renal): 3.93 µM
- TGI (CAKI-1 renal): 42.5 µM
- GI50 (COLO 205 colon): 5.29 µM
- TGI (COLO 205 colon): > 100 µM
- GI50 (DU-145 prostate): 4.67 µM
- TGI (DU-145 prostate): 32.9 µM
- GI50 (EKVX NSCLC): 5.35 µM
- TGI (EKVX NSCLC): 28.4 µM
- GI50 (HCC-2998 colon): 3.46 µM
- TGI (HCC-2998 colon): 13.7 µM
- GI50 (HCT-15 colon): 3.74 µM
- TGI (HCT-15 colon): 13.4 µM
- GI50 (HL-60(TB) leukemia): > 100 µM
- TGI (HL-60(TB) leukemia): > 100 µM
- GI50 (HOP-62 NSCLC): 12.8 µM
- TGI (HOP-62 NSCLC): 45.4 µM
- GI50 (HOP-92 NSCLC): 7.68 µM
- TGI (HOP-92 NSCLC): 71.3 µM
- GI50 (HS 578T breast): 4.28 µM
- TGI (HS 578T breast): > 100 µM
- GI50 (HT29 colon): 4 µM
- TGI (HT29 colon): 32.2 µM
- GI50 (IGROV1 ovarian): 99.2 µM
- TGI (IGROV1 ovarian): > 100 µM
- GI50 (K-562 leukemia): 4.49 µM
- TGI (K-562 leukemia): > 100 µM
- GI50 (KM12 colon): 4.27 µM
- TGI (KM12 colon): > 100 µM
- GI50 (M14 melanoma): 6.06 µM
- TGI (M14 melanoma): > 100 µM
- GI50 (MALME-3M melanoma): 5.24 µM
- TGI (MALME-3M melanoma): 50.4 µM
- GI50 (MCF7 breast): 2.55 µM
- TGI (MCF7 breast): 15.1 µM
- GI50 (MDA-MB-231 breast): 2.14 µM
- TGI (MDA-MB-231 breast): 5.77 µM
- GI50 (MDA-MB-435): 4.36 µM
- TGI (MDA-MB-435): > 100 µM
- GI50 (MDA-MB-468 breast): 2.55 µM
- TGI (MDA-MB-468 breast): 8.01 µM
- GI50 (MOLT-4 leukemia): 4.41 µM
- TGI (MOLT-4 leukemia): > 100 µM
- GI50 (NCI-H226 lung): 2.04 µM
- TGI (NCI-H226 lung): 7.13 µM
- GI50 (NCI-H23 lung): 2.4 µM
- TGI (NCI-H23 lung): 7.91 µM
- GI50 (NCI-H460 lung): 2.79 µM
- TGI (NCI-H460 lung): 8.9 µM
- GI50 (NCI-H522 lung): 4.19 µM
- TGI (NCI-H522 lung): 25.7 µM
- GI50 (NCI/ADR-RES ovarian): 3.19 µM
- TGI (NCI/ADR-RES ovarian): 16.6 µM
- GI50 (OVCAR-3 ovarian): 14.3 µM
- TGI (OVCAR-3 ovarian): > 100 µM
- GI50 (OVCAR-4 ovarian): 28.9 µM
- TGI (OVCAR-4 ovarian): > 100 µM
- GI50 (OVCAR-5 ovarian): 46.1 µM
- TGI (OVCAR-5 ovarian): > 100 µM
- GI50 (OVCAR-8 ovarian): 6.41 µM
- TGI (OVCAR-8 ovarian): > 100 µM
- GI50 (PC-3 prostate): 7.21 µM
- TGI (PC-3 prostate): > 100 µM
- GI50 (RPMI-8226 leukemia): 4.35 µM
- TGI (RPMI-8226 leukemia): > 100 µM
- GI50 (RXF 393 renal): 1.91 µM
- TGI (RXF 393 renal): 7.27 µM
- GI50 (SF-268 CNS): 3.62 µM
- TGI (SF-268 CNS): 32.1 µM
- GI50 (SF-295 CNS): 3 µM
- TGI (SF-295 CNS): 13.2 µM
- GI50 (SF-539 CNS): 3.05 µM
- TGI (SF-539 CNS): 12.2 µM
- GI50 (SK-MEL-2 melanoma): > 100 µM
- TGI (SK-MEL-2 melanoma): > 100 µM
- GI50 (SK-MEL-28 melanoma): 7.31 µM
- TGI (SK-MEL-28 melanoma): > 100 µM
- GI50 (SK-MEL-5 melanoma): 2.76 µM
- TGI (SK-MEL-5 melanoma): 10.4 µM
- GI50 (SK-OV-3 ovarian): 15.7 µM
- TGI (SK-OV-3 ovarian): 71.3 µM
- GI50 (SN12C renal): > 100 µM
- TGI (SN12C renal): > 100 µM
- GI50 (SNB-19 CNS): 18 µM
- TGI (SNB-19 CNS): 63.3 µM
- GI50 (SNB-75 CNS): 2.32 µM
- TGI (SNB-75 CNS): > 100 µM
- GI50 (SR leukemia): 6.28 µM
- TGI (SR leukemia): > 100 µM
- GI50 (SW-620 colon): 4.19 µM
- TGI (SW-620 colon): 97.9 µM
- GI50 (T-47D breast): 3.47 µM
- TGI (T-47D breast): > 100 µM
- GI50 (TK-10 renal): 21.7 µM
- TGI (TK-10 renal): 81.3 µM
- GI50 (U251 CNS): 3.31 µM
- TGI (U251 CNS): 14.2 µM
- GI50 (UACC-257 melanoma): > 100 µM
- TGI (UACC-257 melanoma): > 100 µM
- GI50 (UACC-62 melanoma): 8.84 µM
- TGI (UACC-62 melanoma): > 100 µM
- GI50 (UO-31 renal): 9.42 µM
- TGI (UO-31 renal): 33.4 µM
